# Measured values as given in patent publication US20260000685A1, “PHARMACEUTICAL COMPOSITION FOR PREVENTING OR TREATING DEGENERATIVE BRAIN DISEASES, COMPRISING CANNABINOIDS AS ACTIVE INGREDIENT, AND USES THEREOF” (NEOCANNBIO CO., LTD., priority 2022, published 2026).
# Legend:
# [1] = test system: phosphorylated tau (p-Tau); assay: Western blotting of Tau/p-Tau in Aβ1-42-treated primary neuronal cells; format: cell-based, ICR mice; conditions: with Aβ1-42 (5 μM), 24 hours; compared to Aβ1-42 alone; FIG. 7
# Description: (§1) To conduct Western blotting, tissues were homogenized in radioimmunoprecipitation assay buffer (Cell Signaling) to acquire tissue lysates. Tissue protein concentrations were determined using the Bio-Rad protein assay (Bio-Rad, Hercules, CA, USA), and Western blot analysis was conducted using 80-120 μg of protein. Next, the Western blotting samples prepared using the proteins were separated using 12% SDS-PAGE and transferred to a polyvinylidene fluoride membrane (PVDF) (Merck Millipore, Burlington, MA, USA; 0.4 μm). The PVDF was blocked with tris-buffered saline including 5% bovine serum albumin and Tween-20, and incubated with primary antibodies overnight at 4° C. After primary antibody incubation, the samples were incubated with HRP-conjugated secondary antibody (Sigma; 1:5000) for 1 hour at room temperature, and immunodetection was conducted using an enhanced chemiluminescence detection kit (GE Healthcare, Chicago, IL, USA).
# Specifically, primary neuronal cells derived from ICR mice were cultured for 6 days, and then treated with CBDA, THCA, THC, or CBN compounds while treating with Aβ1-42 (5 μM), and treated together for 24 hours. Next, to confirm the expression levels of Tau and phosphorylated Tau (p-Tau) in the cells, Western blotting was conducted using the method disclosed in Example 4 above.
# [2] = test system: primary neuronal cells; assay: Inhibition of Aβ1-42-induced neuron apoptosis (MTS cell viability); format: cell-based, ICR mice; conditions: different concentrations with Aβ1-42 (5 μM), 24 hours; compared to control treated with Aβ1-42 alone; FIG. 2
# Description: Specifically, primary neuronal cells derived from ICR mice were seeded in 96-wells at 5×10^5 cells per well and cultured for 6 days. Afterwards, the six compounds of Example 1 above were treated at different concentrations and Aβ1-42 (5 μM) was treated to induce neuron apoptosis, and the cells were treated together for 24 hours. Afterwards, a MTS solution was added to the medium and incubated for 2 hours. Cytotoxicity (cell viability) was measured using a microplate spectrophotometer (Bio-Tek Power Wave XS, Winooski, VT, USA), and absorbance was measured at 490 nm.
# Next, the neuron apoptosis inhibition efficacy for the same concentration of CBDA, CBD, THCA and THC was evaluated using the same method as above. Memantine, known as an Alzheimer's treatment, was used as a positive control group.
# [3] = test system: primary cortical neuron cells; assay: Intracellular calcium concentration in neuronal cells (fluo-4 AM fluorescence imaging); format: cell-based; conditions: CBDA (6.25 μM), THCA (12.5 μM), THC (12.5 μM) with Aβ1-42 (5 μM), 24 hours; compared to Aβ1-42 alone; FIG. 8 and 9
# Description: Specifically, primary cortical neuron cells were seeded in 96-wells at 5×10^5 cells per well and cultured for 6 days. […] Next, to measure the concentration of calcium ions in neuronal cells by detecting Ca^2+ using fluorescence imaging, the cells were washed with PBS and treated with 10 μM Ca^2+ indicator fluo-4 AM (Thermo) for […]. The stained sections were washed with PBS, covered with Prolong Gold Antifide Reagent (Invitrogen, Carlsbad, CA, USA) including DAPI nuclear stain, and observed using a microscope (Carl Zeiss, Oberkochen, Germany). Fluo-4 AM fluorescence signal intensity was measured using the Image J analysis program (National Institute of Health, Bethesda, […], USA).
# [4] = test system: amyloid beta (Aβ); assay: Western blotting of Aβ expression in Aβ1-42-treated primary neuronal cells; format: cell-based, ICR mice; conditions: with Aβ1-42 (5 μM), 24 hours; compared to Aβ1-42 alone; FIG. 5
# Description: Specifically, primary neuronal cells derived from ICR mice were cultured for 6 days, and then treated with CBDA, THCA, THC, or CBN compounds while treating with Aβ1-42 (5 μM), and treated together for 24 hours. Next, Western blotting was conducted to confirm the expression levels of APP (Amyloid Precursor Protein), polymeric Aβ, and oligomeric AB in the cells.
# as §1
SMILES,expression level of p-Tau [1],phosphorylation level of p-Tau [1],cell survival rate level [2],intracellular calcium ion concentration [3],expression level of AB [4]
"CCCCCc1cc(O)c2c(c1)OC(C)(C)[C@@H]1CCC(C)=C[C@@H]21 [THC, (6aR, 10aR)-delta-9-Tetrahydrocannabinol]",significantly reduced,significantly reduced,significantly increased,significantly reduced,significantly reduced
"CCCCCc1cc(O)c2c(c1)OC(C)(C)c1ccc(C)cc1-2 [CBN, 6,6,9-Trimethyl-3-pentyl-benzo[c]chromen-1-ol]",,not,significantly increased,,significantly reduced
